Test results reported in patent US11400104B2, “Skeletal removal of bisphosphonates” (The Regents of the University of California, priority 2016, dated 2022).
“Also recorded” adds a separate entry of the source.

Experiments:
[1] = displacement of a pre-adsorbed FL-BP from CaP-coated culture wells by a different FL-BP; type: binding; details: FIG. 1 Panel A
Method: FIG. 1, Panels A-C, illustrates displacement of an adsorbed fluorescently labeled BP (FL-BP) from a hydroxyapatite surface mimicking bone by a different fluorescently labeled BP. Synthetic bone/dentine (calcium phosphate, CaP)-coated culture wells were pre-treated with either ROX-RIS or 5-FAM-RIS (50 μM) After challenged by serially diluted doses of 5-FAM-RIS or ROX-RIS (from 0 to 50 μM), respectively, Carboxyl-X-Rhodamine (ROX) and carboxyfluorescein (FAM) fluorescence intensities of the CaP-coated wells were measured. Panel A: ROX-RIS in CaP (first bars of each set) remained near the pre-adsorbed 50 μM level until 5 μM or greater concentrations of 5-FAM-RIS challenged. In contrast, 5-FAM-RIS (second bars of each set) was rapidly displaced by concentrations of ROX-RIS as low as 1 μM. Panel B: Pre-adsorbed FAM-RIS was replaced by ROX-RIS between 10 μM to 50 μM. Panel C: The quantitative measurement of FAM and ROX fluorescent signals was conducted by standardized fluorescent biophotonics and a proprietary program (LAS3000, FUJIFILM, Tokyo, Japan).

[2] = test system: Rap1A prenylation; experiment: Western blot of Rap1A prenylation in J774 macrophages; type: cell-based, mouse; details: 10 μM and 100 μM dose
[3] = test system: ZOL-induced mouse BRONJ model; experiment: ZOL-induced mouse BRONJ/ONJ model (ZOL IV injection followed by maxillary first molar extraction); type: in vivo; details: for development of ONJ-like lesions at the tooth extraction sites: ZOL 500 μg/kg IV, intra-oral injection one day prior to extraction, 14 days after extraction, FIG. 21; for histology of maxilla at the tooth extraction site: ONJ-like lesion: 2 weeks after extraction, one time oral injection in ZOL-mice, FIG. 20; for development of ONJ-like lesions: FIG. 19C; for ZOL-injected mice with open oral wound: 500 μg/Kg ZOL via tail vein
Method: AF647-ZOL was applied by intra-oral injection or IV injection 1 day prior to tooth extraction. FIG. 16B are images of mouse maxilla and the oral mucosa inflammation and swelling (white dotted lines, left and right panels) with various degrees of jawbone exposure (arrow) at the tooth extraction site of ZOL-treated mice (BRONJ control: n−4). […]
Panel A is a diagram of the experimental time line. Mice treated by IV injection of ZOL (500 μg/kg) received an intra-oral injection of AF647-ZOL, MHDP or ETI (etidronate) one day prior to maxillary 1″ molar extraction. The development of ONJ was evaluated 14 days after tooth extraction.
The C57BL/6J (B6) mice model of ONJ is used. The consistent tissue source in this study is mouse maxillary bone with or without tooth extraction, as well as femurs, mandibles and L4/L5 lumber bones. Tooth extraction animal models for studying wound healing in mice have been well established in our and other laboratories. Systemic bisphosphonate treatment is accomplished by IV injection and the proposed local application of FL-BP is accomplished by intraoral injection to gingival/palatal tissue of mouse maxilla. Mice are subjected to maxillary molar extraction. After anesthesia and vital signs checked, the animal is placed on a bed supporting the isoflurane tubing while keeping the mouth opening. Ophthalmic ointment (bland, e.g., Lacrilube) is applied. The maxillary molar area is wiped with 0.12% Chlorhexidine gluconate solution (Peridex, oral rinse). An autoclaved dental explorer is used as an exodontia elevator after careful reflection of the cervical mucosa to minimize post-extraction discomfort. An autoclaved cotton swab is placed on the extraction socket until the initial blood coagulation is established. Maxillary 1st molar is then extracted unilaterally from so that the remaining untreated side can be utilized for chewing. In our previous experiments, the entire procedure takes about 5-15 minutes. […]
In a preliminary study female B6 mice were injected 500 μg/Kg ZOL (equivalent to 200 μl of 350 μM ZOL) via tail vein and one week later, maxillary left first molar was extracted. […]
Therefore, as schematically shown in FIG. 19B mouse maxillae were treated with ZOL and then either 2 μg of MHDP was orally injected to the site of the molar to be extracted or 100 μg of MHDP was IV injected and the sites of molar extraction of treated mouse maxilla were compared to controls.

[4] = test system: mouse femur trabecular bone; experiment: micro CT evaluation of mouse femur trabecular structure (anti-resorptive function in vivo); details: for anti-resorptive effect: vs saline (0.9% NaCl) vehicle
Method: FIG. 19A to FIG. 19C present evidence that certain alkylidene bisphosphonates can be used to displace active BPs in vivo in the mouse model. […] FIG. 19B outlines the protocol for the experiments using MHDP to treat C57B16 mice. An ONJ-like lesion was generated by ZOL IV injection into the mouse, followed by extraction of the maxillary first molar. One day prior to the tooth extraction, a group of mice received intra-oral injection of 2 μg MHDP and another group received IV injection of 100 μg MHDP. FIG. 19C presents images of the mouse maxilla.
This study determines the anti-resorptive function of FL-BP in vivo, as compared to ZOL. Female B6 mice were injected with 50 μM ZOL (n=6), 50 μM FL-BP (n=6) or 0.9% NaCl vehicle solution (control: n=6) via tail vein. Three weeks later, mice were euthanized and femur and L4/L5 were harvested. After fixed in 10% buffered formalin, bone samples were subjected to micro CT analysis. The anti-resorptive function were quantitatively established by the trabecular bone three-dimensional morphometry (e.g., BV/TV, Tb.N, Tb.Th, TbSp). FL-BPs with minimal or no pharmacological BP function are used.
Mice were IV injected with 0.9% NaCl (vehicle solution), ZOL (184 μM×100 μL=5.0 μg/animal) or AF647-ZOL (184 μM×100 μL=22.0 μg/animal) and femurs were harvested 2 weeks after injection. The micro CT data were compared.

[5] = hydroxyapatite (HAP) binding affinity, relative retention times normalized to RIS; details: FIG. 7
Method: FIG. 7 is a bar graph showing hydroxyapatite (HAP) binding affinity of Zoledronate (ZOL), ROX-RIS, 5-FAM-ZOL, and AF647-ZOL. Relative retention times were normalized to RIS.
Hydroxyapatite assays indicate that the FL-BPs generally retain substantial affinity for bone mineral that reflect the affinity of the BP component and to a lesser extent, the affinity of the conjugated fluorophore. Hydroxyapatite (Macro-Prep® Ceramic hydroxyapatite Type II […]) was obtained from Bio-Rad Laboratories, Inc. Hercules, Calif. Accurately weighed hydroxyapatite powder (1.4-1.6 mg) was suspended in a 4 mL clear vial containing the appropriate volume of assay buffer (0.05% (wt/vol) Tween20, 10 μM EDTA and 100 mM HEPES pH=7.4) for 3 hours. Hydroxyapatite was then incubated with increasing amounts of FAM-BP and ROX-BP (0, 25, 50, 100, 200, and 300 μM). Samples were gently shaken for 3 hours at 37° C. in appropriate volume of assay buffer (0.05% (wt/vol) Tween20, 10 μM EDTA and 100 mM HEPES pH=7.4). Subsequent to the equilibrium period, the vials were centrifuged at 10,000 rpm for 5 minutes to separate the solids and the supernatant. 0.3 mL of the supernatant was collected and the equilibrium solution concentration is measured by using Shimadzu UV-VIS spectrometer. For the calibration series, FL-BP probe standards were prepared by serial dilution from the stock solution with the same isotherm buffer to give the range from 0 to 400 μM. Calibration curves were constructed using standard solutions of the target FL-BPs. Fluorescent emission can also be used to calculate the binding parameters. Nonspecific binding was measured with a similar procedure in the absence of hydroxyapatite as control. Binding parameters (Kd and Bmax, represent the equilibrium dissociate constant and maximum number of binding sites, respectively) were calculated using the PRISM program (Graphpad, USA). The binding parameters of each compound was measured in 5 independent experiments. […]

[6] = test system: mouse maxilla; experiment: preliminary study: fluorescent imaging of mouse maxilla after 5-FAM-ZOL IV or ROX-RIS intraoral injection; type: in vivo; details: single intraoral 25 μl of 50 μM; 2 days after
Method: In a preliminary study female C57B16/J (B6) mice (8 weeks old) received either a single IV injection via tail vein of 200 μl of 350 μM 5-FAM-ZOL (5-FAM-ZOL, #BV111001, BioVinc LLC, Culver City, Calif.) or a single intraoral injection of 25 μl of 50 μM ROX-RIS (5(6)-ROX-RIS, #BV150101, BioVinc LLC, CA) to gingival/palatal tissue at maxillary left first molar (white arrow in FIG. 11). […], mice were euthanized 3 weeks after the IV injection of 5-FAM-ZOL or 2 days after the intraoral injection of ROX-RIS. Skulls (containing maxilla) were harvested and standardized fluorescent biophotonics image was obtained using an excitation wavelength of 460 nm and the 515 nm filter (LAS3000, FUJIFILM Corp).

[7] = IV 184 μM×100 μL, femurs 2 weeks after injection

For `O=C(NCC(O)C[n+]1cccc(CC(O)(P(=O)(O)O)P(=O)(O)O)c1)c1ccc(-c2c3ccc(=O)cc-3oc3cc(O)ccc23)c(C(=O)O)c1` (centres unmarked) [5-FAM-RIS], the “concentration of challenging 5-FAM-RIS up to which pre-adsorbed ROX-RIS remained near the pre-adsorbed level” value ([1]; CaP wells pre-treated with 50 μM ROX-RIS) was at least 5 µM.
In the case of `CC(O)(P(=O)(O)O)P(=O)(O)O` [ETI, ethylene hydroxyl bisphosphonate, reference compound], the “inhibition of Rap1A prenylation (accumulated unprenylated Rap1A)” value (from here on “inhibition of Rap1A prenylation”) [2] is reported as “not” and the “development of ONJ-like lesions at the tooth extraction sites” value [3] is reported as “appeared to be prevented”.
For `O=P(O)(O)C(O)P(=O)(O)O` [MHDP, methylene hydroxyl bisphosphonate], the “inhibition of Rap1A prenylation” value [2] was “not”, the anti-resorptive effect ([4]; FIG. 19A) was “lack of anti-resorptive activity; also recorded: lack of anti-resorptive effect” and the “histology of maxilla at the tooth extraction site: ONJ-like lesion” value [3] was “did not develop an ONJ-like lesion”. For the same compound, the “development of ONJ-like lesions” value ([3]; IV injection of 100 μg one day prior to extraction) was “prevented the development of ONJ-like lesions”, the “development of ONJ-like lesions at the tooth extraction sites” value [3] was “appeared to be prevented” and the “development of ONJ-like lesions” value ([3]; intra-oral injection of 2 μg one day prior to extraction) was “prevented the development of ONJ-like lesions”.
With `O=C(NCC(O)C[n+]1cccc(CC(O)(P(=O)(O)O)P(=O)(O)O)c1)c1ccc(C2=c3cc4c5c(c3Oc3c2cc2c6c3CCCN6CCC2)CCC[N+]=5CCC4)c(C(=O)O)c1` (centres unmarked) [ROX-RIS] the “influence of the fluorophore on hydroxyapatite affinity” value [5] was “enhancement”, the “fluorescent signal in palatal bone around the injection site” value [6] was “localized red fluorescent signal” and the “concentration of challenging ROX-RIS that displaced pre-adsorbed 5-FAM-RIS” value ([1]; CaP wells pre-treated with 50 μM 5-FAM-RIS) was at least 1 µM.
In the case of `O=P(O)(O)C(O)(Cn1ccnc1)P(=O)(O)O` [ZOL, zoledronate], the “inhibition of Rap1A prenylation” value [2] is reported as “inhibited Rap1A prenylation”, the “bone volume over tissue volume (BV/TV)” value ([4]; FIG. 19A, trabecular bone) is reported as “increased” and the “connectivity density (ConnD)” value ([4]; FIG. 19A, trabecular bone) is reported as “decreased”. For the same compound, the anti-resorptive effect ([4]; FIG. 19A) was “significant anti-resorptive effect”, the connectivity density [4, 7] was “nearly doubled” and the “volume of femur trabecular bone (BV/TV)” value [4, 7] was “nearly doubled”. The bone structural parameters ([4]; IV 184 μM×100 μL, femurs 2 weeks after injection, FIG. 14) was “significantly increased”, the “ZOL-injected mice with open oral wound” value ([3]; 2 weeks of tooth extraction) was 100% and the “ZOL-injected mice with open oral wound” value ([3]; 4 weeks of tooth extraction) was 50%. For the same compound, the “histology of maxilla at the tooth extraction site: ONJ-like lesion” value [3] was “development of an ONJ-like lesion” and the “tooth extraction wound healing in ZOL-injected mice” value ([3]; ZOL IV, then maxillary first molar extraction) was “delayed wound healing with gingival swelling and jawbone exposure”.
